Results taken from patent publication US20250250230A1, “HETEROCYCLIC COMPOUND” (TAKEDA PHARMACEUTICAL COMPANY LIMITED, priority 2022, published 2025).

Biological target: T1, human orexin type 2 receptor (Homo sapiens, UniProt O43614)
T1 construct: expressed in transfected cells
T1 sequence (O43614 1-444): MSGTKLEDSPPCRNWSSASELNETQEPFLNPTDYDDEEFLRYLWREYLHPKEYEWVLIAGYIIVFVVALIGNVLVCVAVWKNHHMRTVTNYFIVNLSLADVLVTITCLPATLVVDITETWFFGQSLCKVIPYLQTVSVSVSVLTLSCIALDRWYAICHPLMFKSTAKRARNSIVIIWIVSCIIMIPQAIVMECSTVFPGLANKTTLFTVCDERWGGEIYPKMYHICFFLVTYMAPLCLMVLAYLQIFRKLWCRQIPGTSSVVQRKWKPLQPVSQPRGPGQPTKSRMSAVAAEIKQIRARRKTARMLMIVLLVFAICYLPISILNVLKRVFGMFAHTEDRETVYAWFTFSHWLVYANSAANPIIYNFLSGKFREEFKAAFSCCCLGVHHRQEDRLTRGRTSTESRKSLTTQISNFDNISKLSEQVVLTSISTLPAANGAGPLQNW
Assay: Measurement of orexin type 2 receptor agonist activity (calcium fluorescence, Fluo-4 AM, FDSS)
Type: cell-based
Conditions: test compound 3 μM; CHO cells expressing human OX2 receptor; DMSO = 0%, orexin A (human) = 100%
In short: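 Agonist response scaled between vehicle (0%) and human orexin A at 10 nM final (100%), from 2-min kinetic Fluo-4 fluorescence reads. Stable hOX2R CHO-K1 clone, dye-loaded in HBSS/20 mM HEPES/0.1% BSA with 1.25 mM probenecid before compound addition.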

OX2R agonist activity (3 μM, %)	Compound
97%	CS(=O)(=O)NC1CCCCN(C(=O)C2CC2c2ccccc2-c2c(F)cccc2F)C1 (racemic) [Example 41, a mixture of rac-N-{(3R)-1-[(1R,2R)-2-(2′,6′-difluoro[1,1′-biphenyl]-2-yl)cyclopropane-1-carbonyl]azepan-3-yl}methanesulfonamide and rac-N-{(3S)-1-[(1R,2R)-2-(2′,6′-difluoro[1,1′-biphenyl]-2-yl)cyclopropane-1-carbonyl]azepan-3-yl}methanesulfonamide]
92%	CS(=O)(=O)NC1CCCN(C(=O)C2CC2c2ccccc2-c2ccccc2Cl)CC1 (racemic) [Example 43, a mixture of rac-N-{(4R)-1-[(1R,2R)-2-(2′-chloro[1,1′-biphenyl]-2-yl)cyclopropane-1-carbonyl]azepan-4-yl}methanesulfonamide and rac-N-{(4S)-1-[(1R,2R)-2-(2′-chloro[1,1′-biphenyl]-2-yl)cyclopropane-1-carbonyl]azepan-4-yl}methanesulfonamide]
75%	CS(=O)(=O)NC1CCCN(C(=O)C2CC2c2ccccc2-c2cc(F)ccc2F)CC1 (racemic) [Example 51, a mixture of rac-N-{(4R)-1-[(1R,2R)-2-(2′,5′-difluoro[1,1′-biphenyl]-2-yl)cyclopropane-1-carbonyl]azepan-4-yl}methanesulfonamide and rac-N-{(4S)-1-[(1R,2R)-2-(2′,5′-difluoro[1,1′-biphenyl]-2-yl)cyclopropane-1-carbonyl]azepan-4-yl}methanesulfonamide]
65%	Cc1ccccc1-c1ccccc1C1CC1C(=O)N1CCCC(NS(C)(=O)=O)CC1 (racemic) [Example 52, a mixture of rac-N-{(4R)-1-[(1R,2R)-2-(2′-methyl[1,1′-biphenyl]-2-yl)cyclopropane-1-carbonyl]azepan-4-yl}methanesulfonamide and rac-N-{(4S)-1-[(1R,2R)-2-(2′-methyl[1,1′-biphenyl]-2-yl)cyclopropane-1-carbonyl]azepan-4-yl}methanesulfonamide]
79%	CS(=O)(=O)NC1CCCN(C(=O)C2CC2c2ccccc2-c2cccc(F)c2F)CC1 (racemic) [Example 54, a mixture of rac-N-{(4R)-1-[(1R,2R)-2-(2′,3′-difluoro[1,1′-biphenyl]-2-yl)cyclopropane-1-carbonyl]azepan-4-yl}methanesulfonamide and rac-N-{(4S)-1-[(1R,2R)-2-(2′,3′-difluoro[1,1′-biphenyl]-2-yl)cyclopropane-1-carbonyl]azepan-4-yl}methanesulfonamide]
85%	CS(=O)(=O)NC1CCCN(C(=O)C2CC2c2ccccc2-c2ccc(F)cc2F)CC1 (racemic) [Example 56, a mixture of rac-N-{(4R)-1-[(1R,2R)-2-(2′,4′-difluoro[1,1′-biphenyl]-2-yl)cyclopropane-1-carbonyl]azepan-4-yl}methanesulfonamide and rac-N-{(4S)-1-[(1R,2R)-2-(2′,4′-difluoro[1,1′-biphenyl]-2-yl)cyclopropane-1-carbonyl]azepan-4-yl}methanesulfonamide]
80%	CS(=O)(=O)NC1CCCN(C(=O)C2CC2c2ccccc2-c2ccccc2F)CC1 (racemic) [Example 59, a mixture of rac-N-{(4R)-1-[(1R,2R)-2-(2′-fluoro[1,1′-biphenyl]-2-yl)cyclopropane-1-carbonyl]azepan-4-yl}methanesulfonamide and rac-N-{(4S)-1-[(1R,2R)-2-(2′-fluoro[1,1′-biphenyl]-2-yl)cyclopropane-1-carbonyl]azepan-4-yl}methanesulfonamide]
